Key:
[1] = system: EGFR (Del19/T790M/C797S) in H1975-clone #28 cells; experiment: Cell degradation of EGFR, HTRF assay, H1975-clone #28 cells; assay type: cell-based; settings: H1975-clone #28 (Del19/T790M/C797S, homozygous), 16 h treatment; for DC50: HTRF; for Dmax H1975 #28: maximum percentage of inhibition (degradation)
Protocol: (§1) BaF3-LTC (L858R/T790M/C797S) cells are treated with compounds diluted in 0.2% DMSO cell culture medium and incubate for 16 h, 37° C., 5% CO2. H1975-#28 cells are treated with compounds diluted in 0.2% DMSO cell culture medium on day 2, incubate for 16 h, 37° C., 5% CO2, the final concentration of compounds in all assay is start with 10 uM, 4-fold dilution, total 8 doses were included.
(§2) After 16 h treatment, add HTRF lysis buffer to each well; seal the plate and incubate 1 hour at room temperature on a plate shaker. Once the cells are lysed, 16 μL of cell lysate are transferred to a PE 384-well HTRF detection plate: 4 μL of pre-mixed HTRF antibodies are added to each well; Cover the plate with a plate sealer, spin 1000 rpm for 1 min, Incubate overnight at room temperature; Read on BMG PheraStar with HTRF protocol (337 nm-665 nm-620 nm).
(§3) The inhibition (degradation) percentage of the compound was calculated by the following equation: […]
(§4) The IC50 (DC50) value of a compound can be obtained by fitting the following equation
(§5) Y=Bottom+(TOP−Bottom)/(1+((IC50/X)^hillslope))
(§6) Wherein, X and Y are known values, and IC50. Hillslope, Top and Bottom are the parameters obtained by fitting with software. Y is the inhibition percentage (calculated from the equation), X is the concentration of the compound; IC50 is the concentration of the compound when the 50% inhibition is reached. The smaller the IC50 value is, the stronger the inhibitory ability of the compound is. Vice versa, the higher the IC50 value is, the weaker the ability the inhibitory ability of the compound is; Hillslope represents the slope of the fitted curve, generally around 1*; Bottom represents the minimum value of the curve obtained by data fitting, which is generally 0%±20%. Top represents the maximum value of the curve obtained by data fitting, which is generally 100%±20%. The experimental data were fitted by calculating and analyzing with Dotmatics data analysis software.

[2] = biological target: T1, EGFR (L858R/T790M/C797S) in BaF3-LTC cells (Homo sapiens, UniProt P00533, C797S/L858R/T790M); experiment: Cell degradation of EGFR, HTRF assay, BaF3-LTC cells; assay type: cell-based; settings: 16 h treatment; for DC50: HTRF; for Dmax: maximum percentage of inhibition (degradation)
T1 construct: expressed in transfected cells; host or cells: BaF3-LTC
T1 sequence (P00533 25-1210 T790M/C797S/L858R): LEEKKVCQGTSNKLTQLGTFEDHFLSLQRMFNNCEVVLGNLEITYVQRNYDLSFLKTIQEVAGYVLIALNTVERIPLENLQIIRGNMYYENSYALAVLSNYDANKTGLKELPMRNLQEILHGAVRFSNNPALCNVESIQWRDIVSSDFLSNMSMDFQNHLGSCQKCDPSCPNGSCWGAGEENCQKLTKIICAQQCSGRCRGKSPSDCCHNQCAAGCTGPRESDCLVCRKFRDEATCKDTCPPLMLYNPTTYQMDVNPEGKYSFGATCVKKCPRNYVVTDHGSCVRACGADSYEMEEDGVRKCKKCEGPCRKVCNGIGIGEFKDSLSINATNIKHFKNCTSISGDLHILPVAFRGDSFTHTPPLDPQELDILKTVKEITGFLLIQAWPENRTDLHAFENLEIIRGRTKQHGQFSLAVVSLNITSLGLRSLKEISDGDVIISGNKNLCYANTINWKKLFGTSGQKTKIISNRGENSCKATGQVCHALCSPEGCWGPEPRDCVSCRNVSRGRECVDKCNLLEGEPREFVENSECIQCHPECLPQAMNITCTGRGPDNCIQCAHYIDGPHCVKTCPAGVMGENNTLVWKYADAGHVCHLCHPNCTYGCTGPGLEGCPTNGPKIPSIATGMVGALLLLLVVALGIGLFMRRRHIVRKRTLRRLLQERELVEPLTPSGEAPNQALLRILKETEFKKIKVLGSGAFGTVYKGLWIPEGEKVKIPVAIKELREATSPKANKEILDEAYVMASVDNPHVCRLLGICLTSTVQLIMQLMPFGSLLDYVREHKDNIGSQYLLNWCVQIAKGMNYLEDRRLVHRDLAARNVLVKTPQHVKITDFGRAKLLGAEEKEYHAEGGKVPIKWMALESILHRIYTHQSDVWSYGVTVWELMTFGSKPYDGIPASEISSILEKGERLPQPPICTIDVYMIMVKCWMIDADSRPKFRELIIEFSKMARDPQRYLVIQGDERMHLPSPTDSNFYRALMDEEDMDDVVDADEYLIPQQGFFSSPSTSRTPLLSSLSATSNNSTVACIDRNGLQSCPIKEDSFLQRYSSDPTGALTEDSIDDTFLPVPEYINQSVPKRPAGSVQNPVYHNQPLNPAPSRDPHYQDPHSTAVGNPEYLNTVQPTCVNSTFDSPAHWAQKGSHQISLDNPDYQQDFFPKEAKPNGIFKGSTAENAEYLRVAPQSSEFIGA
Protocol: as §1, §2, §3, §4, §5, §6

| DC50 [1] [nM] | DC50 [2] [nM] | Dmax [2] [%] | SMILES | Dmax H1975 #28 [1] [%] |
| --- | --- | --- | --- | --- |
| 0.77 | 1.82 | 91.8 | CCc1cc(Nc2ncc(Br)c(Nc3ccc4nc(C)ccc4c3P3(=O)CC=CC3)n2)c(OC)cc1N1CCC(N2CCN(CCc3ccc4c(c3)oc(=O)n4C3CCC(=O)NC3=O)CC2)CC1 (stereo not shown) [Example 145, 3-(6-(2-(4-(1-(4-((5-bromo-4-((2-methyl-5-(1-oxido-2,5-dihydrophosphol-1-yl)quinolin-6-yl)amino)pyrimidin-2-yl)amino)-2-ethyl-5-methoxyphenyl)piperidin-4-yl)piperazin-1-yl)ethyl)-2-oxobenzo[d]oxazol-3(2H)-yl)piperidine-2,6-dione] | 75.97 |
| 3.15 | 75.1 | 86.6 | CCc1cc(Nc2ncc(Br)c(Nc3ccccc3P3(=O)CCCC3)n2)c(OC)cc1N1CCC(N2CCN(CCc3cc(F)c(C4CCC(=O)NC4=O)c(F)c3)CC2)CC1 (stereo not shown) [Example 147, 3-(4-(2-(4-(1-(4-((5-bromo-4-((2-(1-oxidophospholan-1-yl)phenyl)amino)pyrimidin-2-yl)amino)-2-ethyl-5-methoxyphenyl)piperidin-4-yl)piperazin-1-yl)ethyl)-2,6-difluorophenyl)piperidine-2,6-dione] | 82.21 |
| 2.99 | 19.8 | 90.2 | CCc1cc(Nc2ncc(Br)c(Nc3ccccc3P3(=O)CCCC3)n2)c(OC)cc1N1CCC(N2CCN(C(=O)C3CN(c4cc(F)c(C5CCC(=O)NC5=O)c(F)c4)C3)CC2)CC1 (stereo not shown) [Example 148, 3-(4-(3-(4-(1-(4-((5-bromo-4-((2-(1-oxidophospholan-1-yl)phenyl)amino)pyrimidin-2-yl)amino)-2-ethyl-5-methoxyphenyl)piperidin-4-yl)piperazine-1-carbonyl)azetidin-1-yl)-2,6-difluorophenyl)piperidine-2,6-dione] | 78.19 |

The next lines start with the molecule.

| SMILES | DC50 [1] [nM] | DC50 [2] [nM] | Dmax [2] [%] | Dmax H1975 #28 [1] [%] |
| --- | --- | --- | --- | --- |
| CCc1cc(Nc2ncc(Br)c(Nc3ccc4nc(C)ccc4c3P3(=O)CCCC3)n2)c(OC)cc1N1CCC(N2CCN(CCc3cccc4c3n(C)c(=O)n4C3CCC(=O)NC3=O)CC2)CC1 (stereo not shown) [Example 68, 3-(4-(2-(4-(1-(4-((5-bromo-4-((2-methyl-5-(1-oxidophospholan-1-yl)quinolin-6-yl)amino)pyrimidin-2-yl)amino)-2-ethyl-5-methoxyphenyl)piperidin-4-yl)piperazin-1-yl)ethyl)-3-methyl-2-oxo-2,3-dihydro-1H-benzo[d]imidazol-1-yl)piperidine-2,6-dione] | 1.34 | 3.46 | 90.8 | 85.88 |
| CCc1cc(Nc2ncc(Br)c(Nc3ccc4nc(C)ccc4c3P3(=O)CCCC3)n2)c(OC)cc1N1CCC(N2CCN(CCc3ccc4c(c3)oc(=O)n4C3CCC(=O)NC3=O)CC2)CC1 (stereo not shown) [Example 71, 3-(6-(2-(4-(1-(4-((5-bromo-4-((2-methyl-5-(1-oxidophospholan-1-yl)quinolin-6-yl)amino)pyrimidin-2-yl)amino)-2-ethyl-5-methoxyphenyl)piperidin-4-yl)piperazin-1-yl)ethyl)-2-oxobenzo[d]oxazol-3(2H)-yl)piperidine-2,6-dione] | 1.38 | 2.51 | 88.6 | 72.97 |
| CCc1cc(Nc2ncc(Br)c(Nc3ccc4nc(C)ccc4c3P3(=O)CCCC3)n2)c(OC)cc1N1CCC(N2CCN(CCc3cccc4c3C(C)(C)C(=O)N4C3CCC(=O)NC3=O)CC2)CC1 (stereo not shown) [Example 73, 3-(4-(2-(4-(1-(4-((5-bromo-4-((2-methyl-5-(1-oxidophospholan-1-yl)quinolin-6-yl)amino)pyrimidin-2-yl)amino)-2-ethyl-5-methoxyphenyl)piperidin-4-yl)piperazin-1-yl)ethyl)-3,3-dimethyl-2-oxoindolin-1-yl)piperidine-2,6-dione] | 0.66 | 7.52 | 89.9 | 78.13 |
| CCc1cc(Nc2ncc(Br)c(Nc3ccccc3P3(=O)CCCC3)n2)c(OC)cc1N1CCC(N2CCN(C(=O)[C@@H]3CCN(c4cc(F)c(C5CCC(=O)NC5=O)c(F)c4)C3)CC2)CC1 (stereo partly drawn) [Example 111, 3-(4-((R)-3-(4-(1-(4-((5-bromo-4-((2-(1-oxidophospholan-1-yl)phenyl)amino)pyrimidin-2-yl)amino)-2-ethyl-5-methoxyphenyl)piperidin-4-yl)piperazine-1-carbonyl)pyrrolidin-1-yl)-2,6-difluorophenyl)piperidine-2,6-dione] | 4.31 | 26.8 | 90.3 | 87.16 |

Source: US20240131167A1, “EGFR Degraders and Associated Methods of Use” (BeiGene Switzerland GmbH, priority 2021, published 2024)
